# Tests used:
# [1] = Reversal of multidrug resistance in human KBV Cells assessed as increase in PTX-induced cytotoxicity by measuring cell survival rate at 10 uM incubated for 72 hrs in presence of paclitaxel by MTT assay relative to control; assay type: functional; details: read-out: Survival
# [2] = Cytotoxicity against human KBV Cells assessed as cell survival rate at 10 uM incubated for 72 hrs by MTT assay; assay type: functional; details: read-out: Survival
# [3] = Reversal of multidrug resistance in human KBV Cells assessed as reversal fold of paclitaxel IC50 at 5 uM incubated for 72 hrs in presence of paclitaxel by MTT assay; assay type: functional
# [4] = Reversal of multidrug resistance in human KBV Cells assessed as reversal fold of paclitaxel IC50 at 10 uM incubated for 72 hrs in presence of paclitaxel by MTT assay; assay type: functional
# [5] = Reversal of multidrug resistance in human KBV Cells assessed as increase in PTX-induced cytotoxicity by measuring cell survival rate at 5 uM incubated for 72 hrs in presence of paclitaxel by MTT assay relative to control; assay type: functional; details: read-out: Survival
# [6] = Drug accumulation in human KBV cells at 10 uM incubated for 4 hrs by LC-MS/MS analysis; assay type: ADME, cell-based
# [7] = Drug accumulation in human KB cells at 10 uM incubated for 4 hrs by LC-MS/MS analysis; assay type: ADME, cell-based
SMILES,viability at 10 µM [1],viability at 10 µM [2],fold change (FC) [3],fold change (FC) [4],viability at 5 µM [5],Drug uptake [6],Drug uptake [7]
CC(C)(O)[C@H]1CC[C@@](C)(C2CC[C@]3(C)[C@@H]2[C@H](O)C[C@@H]2[C@@]4(C)CC[C@H](O)C(C)(C)[C@@H]4CC[C@]23C)O1 (stereo partly drawn),64%,94%,–,–,–,–,–
COc1cc2c(cc1OC)CN(CCc1ccc(NC(=O)c3cc(OC)c(OC)cc3NC(=O)c3cnc4ccccc4c3)cc1)CC2,–,–,113,150,–,–,–
CC(C)(O)[C@@H]1CC[C@@](C)([C@H]2CC[C@]3(C)[C@@H]2[C@H](O)C[C@@H]2[C@@]4(C)CC[C@H](NC(=O)[C@@H](N)CCCCN)C(C)(C)[C@@H]4CC[C@]23C)O1,88%,87%,–,–,90%,–,–
CC(C)(O)[C@@H]1CC[C@@](C)([C@H]2CC[C@]3(C)[C@@H]2[C@H](O)C[C@@H]2[C@@]4(C)CC[C@H](N)C(C)(C)[C@@H]4CC[C@]23C)O1,55%,98%,–,–,94%,–,–
CC(C)(O)[C@@H]1CC[C@@](C)([C@H]2CC[C@]3(C)[C@@H]2[C@H](O)C[C@@H]2[C@@]4(C)CC[C@H](NC(=O)[C@@H](N)Cc5ccc(O)cc5)C(C)(C)[C@@H]4CC[C@]23C)O1,71%,91%,–,–,88%,–,–
CC(C)(C)OC(=O)NCCCC[C@H](NC(=O)OC(C)(C)C)C(=O)N[C@H]1CC[C@]2(C)[C@H]3C[C@@H](O)[C@@H]4[C@@H]([C@]5(C)CC[C@H](C(C)(C)O)O5)CC[C@@]4(C)[C@]3(C)CC[C@H]2C1(C)C,33%,119%,–,–,47%,–,–
CC(C)(C)OC(=O)NCCCC[C@H](NC(=O)OC(C)(C)C)C(=O)N[C@H]1CC[C@]2(C)[C@H]3C[C@@H](O)[C@@H]4[C@@H]([C@]5(C)CC[C@@H](C(C)(C)O)O5)CC[C@@]4(C)[C@]3(C)CC[C@H]2C1(C)C,29%,99%,–,–,36%,–,–
CC(C)[C@H](N)C(=O)N[C@H]1CC[C@]2(C)[C@H]3C[C@@H](O)[C@@H]4[C@@H]([C@]5(C)CC[C@H](C(C)(C)O)O5)CC[C@@]4(C)[C@]3(C)CC[C@H]2C1(C)C,32%,74%,36,46,34%,–,–
CC(C)(C)OC(=O)N1CCC[C@H]1C(=O)O[C@H]1CC[C@]2(C)[C@H]3C[C@@H](O)[C@@H]4[C@@H]([C@]5(C)CC[C@@H](C(C)(C)O)O5)CC[C@@]4(C)[C@]3(C)CC[C@H]2C1(C)C,35%,103%,–,–,66%,–,–
CC(C)[C@H](NC(=O)OC(C)(C)C)C(=O)N[C@H]1CC[C@]2(C)[C@H]3C[C@@H](O)[C@@H]4[C@@H]([C@]5(C)CC[C@H](C(C)(C)O)O5)CC[C@@]4(C)[C@]3(C)CC[C@H]2C1(C)C,21%,114%,–,–,36%,–,–
CC(C)(O)[C@H]1CC[C@@](C)([C@H]2CC[C@]3(C)[C@@H]2[C@H](O)C[C@@H]2[C@@]4(C)CC[C@H](NC(=O)[C@@H](N)Cc5ccc(O)cc5)C(C)(C)[C@@H]4CC[C@]23C)O1,35%,93%,–,–,59%,–,–
CC(C)(C)OC(=O)N[C@@H](Cc1ccccc1)C(=O)N[C@H]1CC[C@]2(C)[C@H]3C[C@@H](O)[C@@H]4[C@@H]([C@]5(C)CC[C@H](C(C)(C)O)O5)CC[C@@]4(C)[C@]3(C)CC[C@H]2C1(C)C,24%,104%,22,82,30%,–,–
CC(C)(O)[C@H]1CC[C@@](C)([C@H]2CC[C@]3(C)[C@@H]2[C@H](O)C[C@@H]2[C@@]4(C)CC[C@H](NC(=O)[C@@H](N)Cc5ccccc5)C(C)(C)[C@@H]4CC[C@]23C)O1,29%,85%,56,321,33%,–,–
CC(C)(O)[C@@H]1CC[C@@](C)([C@H]2CC[C@]3(C)[C@@H]2[C@H](O)C[C@@H]2[C@@]4(C)CC[C@H](NC(=O)[C@@H]5CCCN5)C(C)(C)[C@@H]4CC[C@]23C)O1,58%,78%,–,–,83%,–,–
CC(C)(C)OC(=O)NCCCCCC(=O)N[C@H]1CC[C@]2(C)[C@H]3C[C@@H](O)[C@@H]4C([C@]5(C)CC[C@H](C(C)(C)O)O5)CC[C@@]4(C)[C@]3(C)CC[C@H]2C1(C)C (stereo partly drawn),36%,98%,–,–,44%,Not Active,Not Active
CC(C)(C)OC(=O)N1CCC[C@H]1C(=O)N[C@H]1CC[C@]2(C)[C@H]3C[C@@H](O)[C@@H]4[C@@H]([C@]5(C)CC[C@H](C(C)(C)O)O5)CC[C@@]4(C)[C@]3(C)CC[C@H]2C1(C)C,32%,155%,–,–,41%,–,–
CC(C)[C@H](N)C(=O)N[C@H]1CC[C@]2(C)[C@H]3C[C@@H](O)[C@@H]4[C@@H]([C@]5(C)CC[C@@H](C(C)(C)O)O5)CC[C@@]4(C)[C@]3(C)CC[C@H]2C1(C)C,52%,79%,–,–,81%,–,–
CC(C)(O)[C@H]1CC[C@@](C)([C@H]2CC[C@]3(C)[C@@H]2[C@H](O)C[C@@H]2[C@@]4(C)CC[C@H](OC(=O)[C@@H]5CCCN5)C(C)(C)[C@@H]4CC[C@]23C)O1,61%,108%,–,–,76%,–,–
CC(C)(O)[C@H]1CC[C@@](C)([C@H]2CC[C@]3(C)[C@@H]2[C@H](O)C[C@@H]2[C@@]4(C)CC[C@H](N)C(C)(C)[C@@H]4CC[C@]23C)O1,40%,98%,–,–,44%,–,–
CC(C)(C)OC(=O)N[C@@H](Cc1ccc(OC(C)(C)C)cc1)C(=O)N[C@H]1CC[C@]2(C)[C@H]3C[C@@H](O)[C@@H]4[C@@H]([C@]5(C)CC[C@H](C(C)(C)O)O5)CC[C@@]4(C)[C@]3(C)CC[C@H]2C1(C)C,38%,125%,–,–,42%,–,–
CC(C)(C)OC(=O)N[C@@H](Cc1ccccc1)C(=O)N[C@H]1CC[C@]2(C)[C@H]3C[C@@H](O)[C@@H]4[C@@H]([C@]5(C)CC[C@@H](C(C)(C)O)O5)CC[C@@]4(C)[C@]3(C)CC[C@H]2C1(C)C,24%,102%,21,49,31%,–,–
CC(C)(O)[C@@H]1CC[C@@](C)([C@H]2CC[C@]3(C)[C@@H]2[C@H](O)C[C@@H]2[C@@]4(C)CC[C@H](OC(=O)[C@@H]5CCCN5)C(C)(C)[C@@H]4CC[C@]23C)O1,116%,113%,–,–,113%,–,–
CC(C)(O)[C@H]1CC[C@@](C)([C@H]2CC[C@]3(C)[C@@H]2[C@H](O)C[C@@H]2[C@@]4(C)CC[C@H](NC(=O)[C@@H](N)CCCCN)C(C)(C)[C@@H]4CC[C@]23C)O1,112%,116%,–,–,110%,–,–
CC(C)(O)[C@@H]1CC[C@@](C)([C@H]2CC[C@]3(C)[C@@H]2[C@H](O)C[C@@H]2[C@@]4(C)CC[C@H](NC(=O)[C@@H](N)CC(=O)O)C(C)(C)[C@@H]4CC[C@]23C)O1,88%,90%,–,–,84%,–,–
CC(C)(O)[C@@H]1CC[C@@](C)([C@H]2CC[C@]3(C)[C@@H]2[C@H](O)C[C@@H]2[C@@]4(C)CC[C@H](NC(=O)[C@@H](N)Cc5ccccc5)C(C)(C)[C@@H]4CC[C@]23C)O1,36%,89%,–,–,67%,–,–
CC(C)(O)[C@H]1CC[C@@](C)([C@H]2CC[C@]3(C)[C@@H]2[C@H](O)C[C@@H]2[C@@]4(C)CC[C@H](NC(=O)[C@@H](N)CC(=O)O)C(C)(C)[C@@H]4CC[C@]23C)O1,100%,95%,–,–,96%,–,–
CC(C)(C)OC(=O)C[C@H](NC(=O)OC(C)(C)C)C(=O)N[C@H]1CC[C@]2(C)[C@H]3C[C@@H](O)[C@@H]4[C@@H]([C@]5(C)CC[C@H](C(C)(C)O)O5)CC[C@@]4(C)[C@]3(C)CC[C@H]2C1(C)C,28%,152%,–,–,41%,–,–
CC(C)[C@H](NC(=O)OC(C)(C)C)C(=O)N[C@H]1CC[C@]2(C)[C@H]3C[C@@H](O)[C@@H]4[C@@H]([C@]5(C)CC[C@@H](C(C)(C)O)O5)CC[C@@]4(C)[C@]3(C)CC[C@H]2C1(C)C,31%,89%,–,–,48%,–,–
CC(C)(C)OC(=O)N1CCC[C@H]1C(=O)O[C@H]1CC[C@]2(C)[C@H]3C[C@@H](O)[C@@H]4[C@@H]([C@]5(C)CC[C@H](C(C)(C)O)O5)CC[C@@]4(C)[C@]3(C)CC[C@H]2C1(C)C,70%,102%,–,–,111%,–,–
CC(C)(C)OC(=O)N1CCC[C@H]1C(=O)N[C@H]1CC[C@]2(C)[C@H]3C[C@@H](O)[C@@H]4[C@@H]([C@]5(C)CC[C@@H](C(C)(C)O)O5)CC[C@@]4(C)[C@]3(C)CC[C@H]2C1(C)C,30%,111%,–,–,44%,–,–
